Results on ten substances are retold here after the OligoGym collection.

This series has as its target PRNP. The series can be described thus: mouse, dose not given. Conditions: ASO.

HELM strings list units from the 5' end as sugar, base in round brackets, then linkage (d deoxyribose, r ribose, m 2'-O-methyl, p phosphodiester). Strings are as the collection lists them; they lack the last nucleoside at the 3' end of the tested compound. [moe] = 2'-O-(2-methoxyethyl) (MOE); [sp] = phosphorothioate linkage; [m5C] = 5-methylcytosine

Regarding “RNA1{[moe](A)[sp].[moe](T)p.[moe](T)p.[moe](T)p.[moe](A)[sp].d([m5C])[sp].d(T)[sp].d(T)[sp].d(T)[sp].d(T)[sp].d([m5C])[sp].d(A)[sp].d(G)[sp].d([m5C])[sp].d(T)[sp].[moe](G)p.[moe]([m5C])p.[moe]([m5C])[sp].[moe](T)}$$$$ (last 3' nucleoside missing)”, the 3 h FOB score was 3 score 0-7.

The substance “RNA1{[moe](G)[sp].[moe](T)p.[moe]([m5C])p.[moe](A)p.d(G)[sp].d(T)[sp].d(T)[sp].d(T)[sp].d(T)[sp].d(T)[sp].d([m5C])[sp].d([m5C])[sp].d([m5C])[sp].d([m5C])[sp].[moe](A)p.[moe]([m5C])p.[moe](A)p.[moe](T)[sp].[moe](A)}$$$$ (last 3' nucleoside missing)” gave a 3 h FOB score of 0 score 0-7.

The substance “RNA1{[moe]([m5C])[sp].[moe]([m5C])p.[moe]([m5C])p.[moe]([m5C])p.[moe](A)[sp].d(G)[sp].d(T)[sp].d(G)[sp].d(T)[sp].d(T)[sp].d([m5C])[sp].d([m5C])[sp].d(A)[sp].d(T)[sp].d([m5C])[sp].[moe]([m5C])p.[moe](T)p.[moe]([m5C])[sp].[moe]([m5C])}$$$$ (last 3' nucleoside missing)” showed a 3 h FOB score of 0 score 0-7.

In turn, “RNA1{[moe]([m5C])[sp].[moe](T)[sp].[moe]([m5C])p.[moe](T)p.[moe](A)p.[moe](T)p.[moe](G)p.d(T)[sp].d(T)[sp].d(T)[sp].d(T)[sp].d([m5C])[sp].d([m5C])[sp].d(A)[sp].d(G)[sp].d(T)[sp].d(G)[sp].[moe]([m5C])p.[moe]([m5C])}$$$$ (last 3' nucleoside missing)” registered a 3 h FOB score of 6 score 0-7.

Turning to “RNA1{[moe]([m5C])[sp].[moe]([m5C])p.[moe]([m5C])p.[moe](A)p.[moe](G)[sp].d(T)[sp].d(G)[sp].d(T)[sp].d(T)[sp].d([m5C])[sp].d([m5C])[sp].d(A)[sp].d(T)[sp].d([m5C])[sp].d([m5C])[sp].[moe](T)p.[moe]([m5C])p.[moe]([m5C])[sp].[moe](A)}$$$$ (last 3' nucleoside missing)”, the 3 h FOB score was determined as 2 score 0-7.

“RNA1{[moe](T)[sp].[moe]([m5C])p.[moe](T)p.[moe]([m5C])p.[moe]([m5C])[sp].d(T)[sp].d(T)[sp].d(G)[sp].d(A)[sp].d(A)[sp].d(T)[sp].d(T)[sp].d(T)[sp].d([m5C])[sp].d(T)[sp].[moe](T)p.[moe](T)p.[moe]([m5C])[sp].[moe](A)}$$$$ (last 3' nucleoside missing)” had a 3 h FOB score of 0 score 0-7.

“RNA1{[moe](G)[sp].[moe](G)p.[moe](A)p.[moe](A)p.[moe](T)[sp].d(G)[sp].d([m5C])[sp].d([m5C])[sp].d(A)[sp].d([m5C])[sp].d(A)[sp].d(T)[sp].d(A)[sp].d(T)[sp].d(A)[sp].[moe](G)p.[moe](G)p.[moe](G)[sp].[moe](T)}$$$$ (last 3' nucleoside missing)”: the 3 h FOB score came out at 4 score 0-7.

For the substance “RNA1{[moe](G)[sp].[moe](G)p.[moe](T)p.[moe](T)p.[moe]([m5C])[sp].d(A)[sp].d(G)[sp].d(T)[sp].d(G)[sp].d(T)[sp].d(T)[sp].d(G)[sp].d(T)[sp].d(G)[sp].d(A)[sp].[moe]([m5C])p.[moe](A)p.[moe](A)[sp].[moe](T)}$$$$ (last 3' nucleoside missing)”, the 3 h FOB score turned out to be 7 score 0-7.

The substance “RNA1{[moe](G)[sp].[moe](T)p.[moe]([m5C])p.[moe](A)p.[moe](T)p.[moe](A)p.d(A)[sp].d(T)[sp].d(T)[sp].d(T)[sp].d(T)[sp].d([m5C])[sp].d(T)[sp].d(T)[sp].d(A)[sp].d(G)[sp].[moe]([m5C])p.[moe](T)[sp].[moe](A)}$$$$ (last 3' nucleoside missing)” yielded a 3 h FOB score of 2.5 score 0-7.

Regarding “RNA1{[moe]([m5C])[sp].[moe](A)p.[moe](G)p.[moe](G)p.[moe](G)[sp].d(A)[sp].d(A)[sp].d(T)[sp].d(A)[sp].d(A)[sp].d(T)[sp].d(T)[sp].d(T)[sp].d(T)[sp].d(A)[sp].[moe]([m5C])p.[moe](T)p.[moe](T)[sp].[moe](T)}$$$$ (last 3' nucleoside missing)”, the 3 h FOB score is 0 score 0-7.
